Legend:
[1] = test system: blood clotting (human citrate plasma); experiment: activated partial thromboplastin time (APTT), action on blood clotting; assay type: biochemical; settings: at low concentrations; pre-clinical data, see sample application 1
Method: The action of triabin and hirudin on blood clotting was measured by determining the activated partial thromboplastin time (APTT). 100 μl of human citrate plasma, 10 μl of inhibitor (triabin or hirudin) and 100 μl of APTT reagent (pathromtin from the Behring Company) were incubated for 3 minutes at 37° C. After 100 μl of a 25 mmol CaCl2 solution was added, the time until clots formed was measured. The measuring was carried out in a fibrometer of the Sarstedt Company. The results are indicated in an extension of the clotting time, which was measured without adding inhibitor.

[2] = clinical studies; easily overdosed; cited from earlier work

Substance: hirudin
- inhibition of clotting [1]: inhibits at low concentrations
- bleeding on overdosing [2]: severe bleeding complications
